The record followed here is patent US20250160330A1, “METHOD FOR CONTROLLING HARMFUL ARTHROPODS OR HARMFUL NEMATODES USING ZOANTHAMINE ANALOG” (SUMITOMO CHEMICAL COMPANY, LIMITED, priority 2022, published 2025).

Each structure is given as a SMILES string. Read-outs that look alike come from different tables or passages of the source.

Experiment [1] deals with cotton aphids (Aphis gossypii). In words: Test method 3: foliar spray on cucumber seedling infested with cotton aphids. Conditions: read-out: mortality of insects.
Experiment [2] deals with western flower thrips (Frankliniella occidentalis). Description: Test method 5: sprayed cucumber leaf, western flower thrips larvae. Conditions: 144 h, read-out: mortality of insects. The experiment is classed as in vivo. The procedure:
(§1) Test compounds are made to a formulation according to a similar method to that described in the Formulation Example 5, and thereto is added water containing 0.03 v/v % of Shindain (registered trademark) to prepare a diluted solution containing a prescribed concentration of the test compound.
Cucumber (Cucumber sativus) seedling (on the developmental stage of the second true leaf) is planted in a cup, and the diluted solutions are sprayed into the seedling at a ratio of 10 mL/seedling. Thereafter, the second true leaf is cut, and the cut leaf was placed in the cup, and approximately twenty (20) of larvae of western flower thrips (Frankliniella occidentalis) larvae are released onto the leaf. After 6 days, the number of the surviving insects is examined and the mortality of insects is calculated by the following equation.

Experiment [3] relates to cotton worm (Spodoptera litura). Description: Test method 2: foliar spray on cabbage seedling, cotton worm larvae. The class given is in vivo. To be noted: 144 h, read-out: mortality of insects. As for the experimental part: as §1
(§2) Cabbage (Brassicae oleracea) seedling (on the developmental stage of the third to fourth true leaf) is planted in a cup, and the diluted solutions are sprayed into the seedling at a ratio of 20 mL/seedling. Thereafter, ten (10) cotton worm (Spodoptera litura) at the third instar larval stage are released. After 6 days, the number of the surviving insects is counted, and the mortality of insects is calculated by the following equation.

Experiment [4] has the same test system. Description: Test method 1: foliar spray on cabbage seedling, cotton worm larvae. The class given is in vivo. To be noted: 144 h, read-out: mortality of insects. As for the experimental part:
The test compounds are made to a formulation according to a similar method to that described in the Formulation Example 5, and thereto is added water containing 0.03 v/v % of Shindain (registered trademark) to prepare a diluted solution containing a prescribed concentration of the test compound.
as §2

Experiment [5] has as its system northern house mosquitos (Culex pipiens pipiens). Description: Test method 8: coated container contact test, northern house mosquito female adults. To be noted: 24 h, read-out: mortality of insects. The experiment is classed as in vivo. As for the experimental part:
The test compounds are dissolved with acetone containing a surfactant, and the solution was then poured into a container of 20 mL contents, and the solution was coating uniformly in the inner face of the container such that the test compound is made 10 mg/m^2, and the surfactant is made 40 mg/m^2, and the container is dried.
Five (5) of female adult of northern house mosquitos (Culex pipiens pipiens) are placed in the contained, and the contained is put the lid. After the passing of the prescribed times, the state of the northern house mosquitos are examined, and the mortality is calculated by the following equation.

The subject of experiment [6] is brown planthoppers (Nilaparvata lugens). Description: Test method 4: foliar spray on rice seedling, brown planthopper larvae. The class given is in vivo. To be noted: 144 h, read-out: mortality of insects. The procedure:
as §1
Rice (Oryza sativa) seedling (on the developmental stage of the second true leaf) is planted in a cup, and the diluted solutions are sprayed into the seedling at a ratio of 10 mL/seedling. Thereafter, twenty (20) of 3rd instar larvae of brown planthoppers (Nilaparvata lugens) are released onto the rice leaves. After 6 days, the number of the surviving insects is examined and the mortality of insects is calculated by the following equation.

Setting [7] is: 200 ppm, spray 10 mL/seedling on cucumber, cut second true leaf, larvae, after 6 days, 25° C.
[8] abbreviates: 200 ppm, spray 20 mL/seedling on cabbage, third instar larvae, after 6 days, 25° C. (test method 2).
The mark [9] stands for this setting: 200 ppm, spray 20 mL/seedling on cabbage, third instar larvae, after 6 days, 25° C.
Setting [10] is: 10 mg/m^2 coated on inner face of container, female adults, after one (1) day, 25° C.
Setting [11] is: 200 ppm, spray 10 mL/seedling on rice, 3rd instar larvae, after 6 days, 25° C.

For the molecule `CC(=O)Oc1cc(C)cc2c1CC(=O)[C@H]1[C@@]2(C)C[C@@]23OC(=O)C[C@]1(C)[C@]2(C)CC[C@]12C[C@@H](C)C[C@H](CN13)O2` [BB-1], the mortality at 200 ppm in experiment [1] was not below 90%; in experiment [2] (setting [7]), not below 90%; in experiment [3] (setting [8]), not below 80%; in experiment [4] (setting [9]), not below 80%. Further, the mortality at 10 mg/m2 in experiment [5] (setting [10]) was not below 80%.

Turning to `COC(=O)C[C@@]1(C)[C@H]2C(=O)[C@H](C)[C@@H]3C(=O)C=C(C)C[C@H]3[C@]2(C)C[C@H]2N3C[C@H]4C[C@H](C)C[C@]3(CC[C@]21C)O4` [EE-5], the mortality at 200 ppm in experiment [1] is not below 90%; in experiment [6], not below 90%; in experiment [2], not below 90%; in experiment [3] it was not below 80%; in experiment [4], not below 80%. In addition, the mortality at 10 mg/m2 in experiment [5] was not below 80%.

Regarding `Cc1cc(O)c2c(c1)[C@]1(C)C[C@@]34OC(=O)C[C@@](C)([C@H]1C(=O)C2)[C@]3(C)CC[C@]12C[C@@H](C)C[C@H](CN14)O2` [B-2], the mortality at 200 ppm was not below 90% in experiment [1], not below 90% in experiment [6], not below 80% in experiment [3] and not below 80% in experiment [4]. Moreover, the mortality at 10 mg/m2 in experiment [5] is not below 80%.

As to `Cc1cc(O)c2c(c1)[C@]1(C)C[C@@]34OC(=O)C[C@@](C)([C@H]1C(=O)[C@@H]2C)[C@]3(C)CC[C@@]12C[C@@H](C)C[C@H](CN14)O2` [B-1], the mortality at 200 ppm in experiment [1] is not below 90%; in experiment [2], not below 90%; in experiment [3] it was not below 80%; in experiment [4] it was not below 80%. The mortality at 10 mg/m2 in experiment [5] was not below 80%.

For the molecule `C[C@@H]1CC(=O)[C@H]2CC(=O)[C@H]3[C@@](C)(C[C@@]45OC(=O)C[C@]3(C)[C@]4(C)CC[C@]34C[C@@H](C)C[C@H](CN35)O4)[C@@H]2C1` [A-18], the mortality at 200 ppm was not below 90% in experiment [1]; not below 90% in experiment [6]; not below 90% in experiment [2]; not below 80% in experiment [3]; not below 80% in experiment [4].

Turning to `CC1CC(O)C2CC(=O)[C@H]3[C@@](C)(CC4N5C[C@H]6C[C@H](C)C[C@]5(CC[C@@]4(C)[C@@]3(C)CC(=O)O)O6)C2C1` (stereo partly shown) [EE-6], the mortality at 200 ppm in experiment [2] (setting [7]) is not below 90%; in experiment [3] (setting [8]), not below 80%. The mortality at 10 mg/m2 in experiment [5] (setting [10]) was not below 80%.

For `CC1=CC(=O)[C@@H]2[C@@H](C1)[C@]1(C)CC3N4C[C@H](O)C[C@H](C)C[C@@H]4CC[C@@]3(C)[C@@](C)(CC(=O)O)[C@H]1C(=O)[C@@H]2C` (stereo partly shown) [GG-3], the mortality at 200 ppm in experiment [1] was not below 90%; in experiment [6] it was not below 90%; in experiment [2], not below 90%; in experiment [4] it was not below 80%. The mortality at 10 mg/m2 in experiment [5] is not below 80%.

As to `COC(=O)C[C@@]1(C)[C@H]2C(=O)[C@H](C)[C@@H]3C(=O)C=C(C)C[C@H]3[C@]2(C)C=C2N3C[C@H]4C[C@H](C)C[C@]3(CC[C@]21C)O4` [EE-4], the mortality at 200 ppm in experiment [6] (setting [11]) is not below 90%; in experiment [2] (setting [7]), not below 90%; in experiment [3] (setting [8]) it was not below 80%. Also, the mortality at 10 mg/m2 in experiment [5] (setting [10]) was not below 80%.

As for `CC1CC(O)[C@H]2CC(=O)[C@H]3[C@@](C)(CC4N5C[C@H](O)C[C@H](C)CC5CC[C@@]4(C)[C@@]3(C)CC(=O)O)[C@@H]2C1` (stereo partly shown) [GG-1], the mortality at 200 ppm in experiment [6] was not below 90%. Also, the mortality at 10 mg/m2 in experiment [5] was not below 80%.

Regarding `COC(=O)C[C@@]1(C)[C@H]2C(=O)C[C@@H]3C(=O)CC(C)C[C@H]3[C@]2(C)CC2N3C[C@H](O)C[C@H](C)CC3CC[C@]21C` (stereo partly shown) [GG-2], the mortality at 10 mg/m2 in experiment [5] is not below 80%.

With `CC1=CC(=O)[C@@H]2[C@@H](C1)[C@]1(C)C[C@H]3N4C[C@H]5C[C@H](C)C[C@]4(CC[C@@]3(C)[C@@](C)(CC(=O)O)[C@H]1C(=O)[C@@H]2C)O5` [EE-3], the mortality at 200 ppm was not below 90% in experiment [1], not below 90% in experiment [6] (setting [11]), not below 90% in experiment [2] (setting [7]) and not below 80% in experiment [4] (setting [9]). Besides, the mortality at 10 mg/m2 in experiment [5] (setting [10]) was not below 80%.

For orientation: mortality means the percentage killed.
